Blank lines part the entries; values can stand above or below the compound they belong to.
Test: in vivo
Description: […] Blood was collected by serial bleeding at 0.16 h, 0.5 h, 1 h, 2 h, 4 h, 6 h, 8 h and 24 h in heparinized tubes. Blood samples were centrifuged at 10,000 rpm for 10 min. at 4° C. to obtain the plasma, which were aspirated into separate labeled tubes and stored at −80° C. 400 ng/ml of Verapmil in acetonitrile was used as the drug extraction solvent for extracting drug from plasma. Extraction solvent was added to plasma was vortexed and shaken on shaker for 10 minutes, centrifuged at 10000 rpm for 10 minutes at 4° C. Supernatant was kept for analysis.
Acetonitrile and plasma calibration curves were generated and percentage of drug recovery from plasma determined. Quantitative analysis was done by liquid chromatography tandem mass spectrometry using multiple reaction monitoring (API3000 LC-MS/MS). Cmax, Tmax, AUC and t1/2 were calculated using Graph Pad PRISM version 5.04.

SMILES: CCc1c2c(nc3ccc(OCOC(=O)c4cccnc4)cc13)-c1cc3c(c(=O)n1C2)COC(=O)[C@]3(O)CC [Compound 305, (S)-((4,11-diethyl-4-hydroxy-3,14-dioxo-3,4,12,14-tetrahydro-1H-pyrano[3′,4′:6,7]indolizino[1,2-b]quinolin-9-yl)oxy)methyl nicotinate]
PK Value (AUC) (dosage 10.00 mpk, vehicle PEG400): BDL

SMILES: CCc1c2c(nc3ccc(OCOC(=O)c4ccc[n+](COC(=O)NC(C)C)c4)cc13)-c1cc3c(c(=O)n1C2)COC(=O)[C@]3(O)CC.[I-] [Compound 306, (S)-3-((((4,11-diethyl-4-hydroxy-3,14-dioxo-3,4,12,14-tetrahydro-1H-pyrano[3′,4′:6,7]indolizino[1,2-b]quinolin-9-yl)oxy)methoxy)carbonyl)-1-(((isopropylcarbamoyl)oxy)methyl)pyridin-1-ium iodide]
PK Value (AUC) (dosage 3.00 mpk, vehicle PEG400): BDL

AUC (female, Sprague Dawley, rat, plasma, po, 10 mg/kg): 0.186 µM·h
SMILES: CC(=O)O[C@H]1C(=O)[C@@]2(C)[C@H]([C@H](OC(=O)c3ccccc3)[C@@]3(O)CC1=C(C)[C@@H](OC(=O)[C@H](O)[C@@H](NC(=O)c1ccccc1)c1ccccc1)C3)[C@]1(OC(C)=O)CO[C@@H]1C[C@@H]2O [Compound 4114, (2α,4α,5β,7β,10β,13α)-4,10-bis(acetyloxy)-13-{[(2R,3S)-3-(benzoylamino)-2-hydroxy-3-phenylpropanoyl]oxy}-1,7-dihydroxy-9-oxo-5,20-epoxytax-11-en-2-yl benzoate]

PK Value (AUC) (rat, in vivo): BDL
SMILES: CCc1c2c(nc3ccc(O)cc13)-c1cc3c(c(=O)n1C2)COC(=O)[C@]3(O)CC [Compound 4150, (S)-4,11-diethyl-4,9-dihydroxy-1H-pyrano[3′,4′:6,7]indolizino[1,2-b]quinoline-3,14(4H,12H)-dione]

Source: patent publication US9359376B2, “Substituted methylformyl reagents and method of using same to modify physicochemical and/or pharmacokinetic properties of compounds” (priority 2011, dated 2016)
